From PubChem BioAssay (NCI) come the findings set out here.

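How tested: cells in 96-well plates exposed to compound for 48 hours at five concentrations. At the TGI there is no net growth.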

What all share (test): NCI tumour cell line growth inhibition, 48 h
For test [1], the system named is DLD-1 colon.
Test [2] has as its system XF 498 CNS.
Test [3] relates to LXFL 529 NSCLC.
Test [4] has as its system SNB-78 CNS.
Test [5] has as its system KM20L2 colon.
The subject of test [6] is DMS 273 small cell lung.
The subject of test [7] is DMS 114 small cell lung.
Test [8] relates to RXF-631 renal.
The subject of test [9] is MDA-N.

With `CC(=O)CCn1ncc(Cl)c(Cl)c1=O`, the TGI in test [1] was determined as 29.9 µM; in [2], 35.5 µM; in test [3] it was 27.3 µM; in [4], 43 µM; in test [5], 36.2 µM; in test [6] it was 32 µM.

With `Nc1nc(Cl)cc(NCCCCCCCCNc2cc(Cl)nc(N)n2)n1`, the TGI is > 100 µM in test [1]; 13.7 µM in test [2]; 27.1 µM in [3]; > 100 µM in test [4]; > 100 µM in test [5]; > 100 µM in test [6].

With `CCC12CCCN(Cc3ccccc3)C1c1c(n(C)c3ccccc13)CC2` (stereo not drawn), the TGI in test [1], in [3], in [5] and in test [6] was > 253 µM each time.

In the case of `COC(=O)C(C(=O)c1ccccc1)C(C(=O)C(=O)Nc1ccc(OC)cc1OC)C(=O)C(=O)c1ccc(C)cc1` (stereo not drawn), the TGI in [1], in test [2], in [3], in test [7], in test [4] and in test [8] was > 100 µM throughout. In addition, the TGI in test [5] and in test [6] was > 100 µM each time.

Turning to `CN1CC(=O)N2Cc3ccccc3-n3cccc3C2C1` (stereo not drawn), the TGI in test [1], in test [2], in test [3], in test [4], in [8] and in [5] was > 100 µM each time. For the same compound, the TGI in test [6] was > 100 µM.

For `N=C(N)C1CN(CCc2c[nH]c3ccccc23)C(=O)NC1=O` (stereo not drawn), in test [9], the TGI is > 100 µM.

As for `Cc1cn2c(=O)c3ncn(C4OC(CO)C(O)C4O)c3n(C)c2n1` (stereo not drawn), the TGI in test [1], in test [3], in test [7], in [4], in test [8] and in test [5] was > 100 µM throughout. Further, the TGI in test [6] was > 100 µM.

As for `CC12C/C(=C\c3ccccc3)C(=O)C3C1CCCC32`, the TGI in [1], in [2], in test [3], in test [7], in test [8] and in test [5] was > 100 µM in each case. Moreover, the TGI in [6] is > 100 µM.

Consider `CC1(C)S[C@@H]2[C@H](NC(=O)C3(N)CCCCC3)C(=O)N2[C@H]1C(=O)O`, for which the TGI in test [9] is > 100 µM.

Take `OC(CC1SCCCS1)c1ccccc1` (stereo not drawn): the TGI in [1], in test [2], in test [3], in [7], in test [5] and in test [6] was > 100 µM in each case.

Consider `O=C(CCN(C(=O)O)S(=O)(=O)c1ccc(NC(=O)c2ccccc2)cc1)Nc1ccccc1`, for which the TGI in [1] was > 100 µM; in test [2] it was > 100 µM; in [3] it was > 100 µM; in test [7], > 68.5 µM; in [4], > 100 µM; in test [8], > 100 µM. The TGI was > 100 µM in test [5] and > 82.4 µM in [6].

Consider `O=C(Nc1ccc2ncccc2c1)Nc1ccc2ncccc2c1`, for which, in test [9], the TGI is > 100 µM.

Turning to `CC(C)C(CCl)NC(=O)c1cccc(C(=O)N[C@H](CCl)C(C)C)n1` (stereo in doubt), the TGI in test [1], in test [2], in [3], in [7], in test [4] and in [8] was > 100 µM each time. Further, the TGI in test [5] and in [6] was > 100 µM each time.

In [9], `CSc1nc(=O)n(CCC#N)nc1SC` displayed a TGI of 51.4 µM.

In test [9], `COc1cccc(C2CC(C)(O)Oc3cc4c(cc32)OCO4)c1O` (stereo not drawn) gave a TGI of 10.4 µM.

Consider `CCN(CC)CCCN1CCc2c([nH]c3ccccc23)C1c1cccnc1` (stereo not drawn), for which the TGI in [1], in [2], in [3], in [7], in test [4] and in test [8] was > 100 µM each time. Also, the TGI in test [5] and in test [6] was > 100 µM throughout.

Regarding `CC(C)N(C(=O)C12C3C4C1C1C4(C#N)C3C12C#N)C(C)C` (stereo not drawn), the TGI in [1], in [2], in test [3], in [7], in test [4] and in test [8] was > 100 µM throughout. Further, in test [5], the TGI was > 100 µM.

For the compound `CC1(C)COC(C2(C)C(=O)C=C(c3ccccc3)c3ccccc32)=N1` (stereo not drawn), the TGI in [1], in [3], in [7], in test [8] and in test [5] was > 100 µM each time.

In the case of `CC1(C)CC(=O)C(C=NC(=S)c2ccccc2)=C(O)C1`, the TGI in test [9] was > 100 µM.

With `CCOC(=O)c1ccc(NC(=O)Oc2ccc3c(C)cc(=O)oc3c2)cc1`, the TGI in [9] was > 100 µM.

As to `O=C1c2ccccc2C(=O)N1CCn1ccc(NC(c2ccccc2)(c2ccccc2)c2ccccc2)nc1=O`, the TGI in [1] is 38.9 µM; in test [2], 30.3 µM; in test [3], > 100 µM; in test [7], 50 µM; in test [4], > 100 µM; in [8] it was 40.4 µM. Also, the TGI in test [5] amounted to 27.5 µM; in test [6], 36.6 µM.

Regarding `C(=NCCN1CCOCC1)=NC1CCCCC1`, the TGI in test [9] is > 100 µM.

In the case of `O=C(O)c1nnsc1-c1ccc(-c2snnc2C(=O)O)cc1`, the TGI in [9] is > 100 µM.

Turning to `[N-]=[N+]=NC1(Cc2ccccc2)C(=O)c2cccc3c2N(CCC3)C1=O` (stereo not drawn), the TGI in test [1], in test [3], in test [7] and in [6] was > 100 µM in each case.
